Test results: patent publication US5688787A, “Substituted β-lactam compounds useful as hypochlesterolemic agents and processes for the preparation thereof” (priority 1996, dated 1997)
Read-outs that look alike come from different tables or passages of the source.

Test system: Hyperlipidemic Hamster
Assay: In Vivo Assay of Hypolipidemic Agents Using the Hyperlipidemic Hamster
Conditions: 7 days, percent change versus control, negative = lowering; for change in vivo at 50 mg/kg / change in vivo at 3 mg/kg / change in vivo at 10 mg/kg: Mesocricetus auratus, po, 168 h; for change in vivo at 50 mg/kg / % Reduction (in vivo) Cholest. Esters / % Reduction (in vivo) Serum Cholest.: 50 mg/kg once daily oral; for change in vivo at 3 mg/kg: 3 mg/kg once daily oral; for change in vivo at 10 mg/kg: 10 mg/kg once daily oral
Protocol: In Vivo Assay of Hypolipidemic Agents Using the Hyperlipidemic Hamster
Hamsters are separated into groups of six and given a controlled cholesterol diet (Purina Chow #5001 containing 0.5% cholesterol) for seven days. Diet consumption is monitored to determine dietary cholesterol exposure in the face of test compounds. The animals are dosed with the test compound once daily beginning with the initiation of diet. Dosing is by oral gavage of 0.2mL of corn oil alone (control group) or solution (or suspension) of test compound in corn oil. All animals roodbund or in poor physical condition are euthanized. After seven days, the animals are anesthetized by IM injection of ketamine and sacrificed by decapitation. Blood is collected into vacutainer tubes containing EDTA for plasma lipid analysis and the liver excised for tissue lipid analysis. Data is reported as percent reduction of lipid versus control.
Using the test procedures described above, the following in vitro and in vivo data were obtained for the preferred compounds, which are referred to in the following table by the corresponding example numbers. For the in vitro ACAT data, negative percent inhibition denotes apparent stimulation,while positive numbers denote inhibition. For the in vivo results, data is reported as percent change versus control, therefore, negative numbers indicate a positive lipid-lowering effect.

[1] = read-out: % Reduction (in vivo) Cholest. Esters
[2] = read-out: % Reduction (in vivo) Serum Cholest.

Row | SMILES | change in vivo at 50 mg/kg [1] [%] | change in vivo at 50 mg/kg [2] [%] | further results
1 | COc1ccc([C@@H]2[C@@H](CCCc3ccc([N+](=O)[O-])cc3)C(=O)N2c2ccc(OC)cc2)cc1 (relative stereo) [Example 7Z] | -39 | -21 | 
2 | COc1ccc(N2C(=O)[C@H](CCCc3ccccc3)[C@@H]2c2ccc(Oc3ccccc3)cc2)cc1 (relative stereo) [Example 1BS] | -43 | 0 | 
3 | COc1ccc(N2C(=O)[C@H](CCCc3ccccc3)[C@@H]2c2ccnc3ccccc23)cc1 (relative stereo) [Example 1BX] | 0 | 0 | 
4 | COc1ccc(N2C(=O)[C@H](CCCc3ccccc3)[C@@H]2c2cc(OC)c(OC)c(OC)c2)cc1 (relative stereo) [Example 1BV] | 0 | -11 | 
5 | COc1ccc(CN[C@@H]2C(=O)N(c3ccccc3)[C@@H]2c2ccc(OC)cc2)cc1 (relative stereo) [Example 14A] | -78 | 31 | 
6 | COc1ccc([C@@H]2[C@H](N3C(=O)c4ccccc4C3=O)C(=O)N2c2ccccc2)cc1 (relative stereo) [Example 7L] | 0 | 0 | 
7 | COc1ccc(N2C(=O)[C@H](CCCc3ccccc3)[C@@H]2c2ccc(C(=O)O)cc2)cc1 (relative stereo) [Example 22A] | -22 | -16 | 
8 | COc1ccc(N2C(=O)[C@H](CCCc3ccccc3)[C@@H]2c2ccc(N(S(C)(=O)=O)S(C)(=O)=O)cc2)cc1 (relative stereo) [Example 25B] | 0 | 0 | 
9 | COc1ccc([C@@H]2[C@H](NC(=O)OCc3ccccc3)C(=O)N2c2ccccc2)cc1 (relative stereo) [Example 12C] | 0 | 0 | 
10 | COc1ccc(N2C(=O)[C@H](CCCc3ccccc3)[C@@H]2c2ccc(NS(C)(=O)=O)cc2)cc1 (relative stereo) [Example 25] | -34 | -8 | 
11 | COc1ccc(N2C(=O)[C@@H](CCCc3ccccc3)[C@H]2c2ncc[nH]2)cc1 (relative stereo) [Example 18] | 0 | 0 | 
12 | COC(=O)C=C(C)N[C@@H]1C(=O)N(c2ccccc2)[C@@H]1c1ccc(OC)cc1 (relative stereo) [Example 7J] | -27 | -21 | 
13 | CCOC(=O)c1ccc([C@@H]2[C@@H](CCCc3ccccc3)C(=O)N2c2ccc(OC)cc2)cc1 (relative stereo) [Example 24A] | -76 | -21 | 
14 | COCOc1ccc([C@@H]2[C@@H](CCCc3ccccc3)C(=O)N2c2ccccc2)cc1 (relative stereo) [Example 7T] | -93 | -49 | 
15 | COc1ccc(N2C(=O)[C@H](CCCc3ccccc3)[C@@H]2c2ccc(OC)c(C)c2)cc1 (relative stereo) [Example 1BA] | 0 | 0 | 
16 | COc1ccc(N2C(=O)[C@H](CCCc3ccccc3)[C@H]2c2ccc(N(C)C)cc2)cc1 (relative stereo) [Example 7U] | -60 | -29 | 
17 | COc1ccc([C@@H]2[C@@H](/C=C/Cc3ccccc3)C(=O)N2c2ccc(OC)cc2)cc1 (relative stereo) [Example 7AJ] | -18 | 0 | 
18 | COc1ccc(N2C(=O)[C@H](CCCc3ccccc3)[C@H]2c2ccc(Oc3ccccc3)cc2)cc1 (relative stereo) [Example 5V] | -77 | -37 | 
19 | COc1ccc([C@@H]2[C@@H](CCCc3ccccc3)C(=O)N2c2ccc(OC)cc2)cc1 (relative stereo) [Example 5W] |  |  | % Reduction (in vivo) Cholest. Esters: -19%; % Reduction (in vivo) Serum Cholest.: 0%
20 | COc1ccc([C@@H]2[C@@H](CCCc3ccccc3)C(=O)N2c2cccc(OC)c2)cc1 (relative stereo) [Example 5E] | -91 | -38 | 
21 | COc1ccc([C@H]2[C@H](CCCc3ccccc3)C(=O)N2c2ccccc2)cc1 [Example 5M] | -50 | -20 | change in vivo at 3 mg/kg [1]: 0%; change in vivo at 3 mg/kg [2]: -12%; change in vivo at 10 mg/kg [1]: -36%; change in vivo at 10 mg/kg [2]: -8%

Row | SMILES | change in vivo at 50 mg/kg [1] [%] | change in vivo at 50 mg/kg [2] [%] | further results
22 | CCN(CC)c1ccc(N2C(=O)[C@H](CCCc3ccccc3)[C@H]2c2ccc(OC)cc2)cc1 (relative stereo) [Example 7C] | -95 | -51 | 
23 | COc1ccc(NC[C@H]2[C@@H](CCCc3ccccc3)C(=O)N2c2ccc(OC)cc2)cc1 (relative stereo) [Example 19D] | -18 | -15 | 
24 | C=CCOc1ccc([C@@H]2[C@@H](CCCc3ccccc3)C(=O)N2c2ccc(OC)cc2)cc1 (relative stereo) [Example 5U] | -86 | -48 | 
25 | COc1ccc(N2C(=O)[C@@H](CCCc3ccccc3)[C@@H]2c2ccc(NS(C)(=O)=O)cc2)cc1 (relative stereo) [Example 25C] | -46 | -8 | 
26 | CCC(=O)N[C@@H]1C(=O)N(c2ccccc2)[C@@H]1c1ccc(OC)cc1 (relative stereo) [Example 12A] | -39 | -14 | 
27 | COc1ccc([C@@H]2[C@@H](CCCc3ccc(N=[N+]=[N-])cc3)C(=O)N2c2ccc(OC)cc2)cc1 (relative stereo) [Example 33] | 0 | 0 | 
28 | CCCCOc1ccc([C@H]2[C@@H](CCCc3ccccc3)C(=O)N2c2ccc(OC)cc2)cc1 (relative stereo) [Example 1BR] | -70 | -15 | 
29 | COc1ccc([C@@H]2[C@@H](CCOc3ccc([N+](=O)[O-])cc3)C(=O)N2c2ccccc2)cc1 (relative stereo) [Example 7AN] | -42 | -12 | 
30 | COc1ccc(N2C(=O)C(CCCc3ccccc3)C2c2ccc(C3OCCO3)cc2)cc1 (centres unmarked) [Example 1AX] |  |  | % Reduction (in vivo) Cholest. Esters: -52%; % Reduction (in vivo) Serum Cholest.: -16%
31 | COc1ccc([C@@H]2[C@@H](/C=C\Cc3ccccc3)C(=O)N2c2ccc(OC)cc2)cc1 (relative stereo) [Example 7AI] | -95 | -63 | change in vivo at 3 mg/kg [1]: -46%; change in vivo at 3 mg/kg [2]: -11%; change in vivo at 10 mg/kg [1]: -73%; change in vivo at 10 mg/kg [2]: -20%
32 | COc1ccc(N2C(=O)[C@@H](CCCc3ccccc3)[C@@H]2c2ccc(SC)cc2)cc1 (relative stereo) [Example 1CM] | 0 | 0 | 
33 | CCOC(=O)[C@@H]1[C@H](CCCc2ccccc2)C(=O)N1c1ccc(OC)cc1 (relative stereo) [Example 7N] | 0 | -11 | 
34 | COc1ccc([C@@H]2[C@@H](CCCc3ccccc3)C(=O)N2c2cccc3c2CCCC3)cc1 (relative stereo) [Example 7AS] | -20 | 0 | 
35 | COCc1ccc([C@@H]2[C@@H](CCCc3ccccc3)C(=O)N2c2ccc(OC)cc2)cc1 (relative stereo) [Example 21] | -56 | -27 | 
36 | COc1ccc([C@@H]2[C@H](Cc3ccc4ccccc4c3)C(=O)N2c2ccccc2)cc1 (relative stereo) [Example 7AQ] | -91 | -52 | 
37 | COc1ccc(C(=O)[C@@H]2[C@H](CCCc3ccccc3)C(=O)N2c2ccc(OC)cc2)cc1 (relative stereo) [Example 7W] | 0 | 12 | 
38 | COc1ccc([C@@H]2[C@@H](CCCCCc3ccccc3)C(=O)N2c2ccc(OC)cc2)cc1 (relative stereo) [Example 7AM] | -70 | -24 | 
39 | COc1ccc([C@@H]2[C@H](NC(=O)Cc3ccccc3)C(=O)N2c2ccccc2)cc1 (relative stereo) [Example 12] | 0 | -12 | 
40 | COc1ccc(N2C(=O)[C@H](CCCc3ccccc3)[C@H]2c2ccc(OC)c(F)c2)cc1 (relative stereo) [Example 7S] | -82 | -27 | 
41 | COc1ccc(N2C(=O)[C@H](CCCc3ccccc3)[C@@H]2c2ccc(S(N)(=O)=O)cc2)cc1 (relative stereo) [Example 29] | -24 | -22 | 
42 | COC(=O)c1ccc([C@@H]2[C@@H](CCCc3ccccc3)C(=O)N2c2ccccc2)cc1 (relative stereo) [Example 7R] | -80 | -35 | 
